Earlier results on 1 compound are cited in patent publication US20110077395A1, “INHIBITORS OF 11-BETA HYDROXYSTEROID DEHYDROGENASE TYPE I” (Bristol-Myers Squibb Company, priority 2005, published 2011).

This series deals with hepatic glucose production. Conditions: mildly overweight individuals with type 2 diabetes, seven days, versus placebo.

With `CC1(C)[C@@H](OC(=O)CCC(=O)O)CC[C@]2(C)[C@H]3C(=O)C=C4[C@@H]5C[C@@](C)(C(=O)O)CC[C@]5(C)CC[C@@]4(C)[C@]3(C)CC[C@@H]12` [carbenoxolone], the hepatic glucose production entry is listed as “decrease in hepatic glucose production”.
